Data as given in patent publication US20230089867A1, “CYCLIC PENTAMER COMPOUNDS AS PROPROTEIN CONVERTASE SUBTILISIN/KEXIN TYPE 9 (PCSK9) INHIBITORS FOR THE TREATMENT OF METABOLIC DISORDER” (Novartis AG, priority 2018, published 2023).
pIC50: −log10 of the molar value.

Biological target: human PCSK9 (Homo sapiens, UniProt Q8NBP7)
Assay: PCSK9 ligand binding TR-FRET assay (interference with binding of human PCSK9 to human LDLR)
Conditions: for Max % inhibition: PCSK9 FRET assay, efficacy (Amax), 100% = 1 uM unlabeled human PCSK9, 0% = DMSO; for pIC50: TR-FRET, human PCSK9 Alexa Fluor 647 / human LDLR extracellular domain-Europium Kryptate, read-out: PCSK9 FRET Assay IC50
In short: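 Threefold compound dilutions were pre-incubated 30 min with PCSK9, after which 4 nM Europium Kryptate-tagged human LDLR ectodomain was added for a further 2 h.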

human PCSK9, sequence (Q8NBP7 153-692): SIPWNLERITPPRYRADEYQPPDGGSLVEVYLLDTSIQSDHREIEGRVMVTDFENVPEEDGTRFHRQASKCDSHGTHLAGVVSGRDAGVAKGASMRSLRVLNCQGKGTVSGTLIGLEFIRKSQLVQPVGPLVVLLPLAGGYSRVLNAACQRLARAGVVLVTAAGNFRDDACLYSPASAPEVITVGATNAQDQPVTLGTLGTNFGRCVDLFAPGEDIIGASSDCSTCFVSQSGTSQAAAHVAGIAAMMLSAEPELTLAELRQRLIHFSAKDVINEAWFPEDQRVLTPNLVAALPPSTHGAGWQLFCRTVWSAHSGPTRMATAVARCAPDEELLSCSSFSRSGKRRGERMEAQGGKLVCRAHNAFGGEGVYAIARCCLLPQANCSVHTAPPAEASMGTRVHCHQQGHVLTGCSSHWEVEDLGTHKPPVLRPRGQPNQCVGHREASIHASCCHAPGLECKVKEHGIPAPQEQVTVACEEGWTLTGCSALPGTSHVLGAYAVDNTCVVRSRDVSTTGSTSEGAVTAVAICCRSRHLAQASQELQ
human PCSK9, sequence (Q8NBP7 31-152 partner limits assumed): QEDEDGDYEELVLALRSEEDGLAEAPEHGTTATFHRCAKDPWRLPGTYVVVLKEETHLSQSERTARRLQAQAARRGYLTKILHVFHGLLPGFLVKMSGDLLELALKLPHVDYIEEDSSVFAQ

Row | SMILES | Max % inhibition [%] | pIC50
1 | CNc1ncc(-c2ccc(Oc3cc(Cl)ccc3CN3C(=O)C[C@@H](Cc4ccccc4)C(=O)N(C)[C@@H](C)CNC(=O)C[C@H](Cc4ccc(Cl)cc4)N(C)C(=O)[C@H](COC)NC(=O)[C@@H]3C)cc2)cn1 [Compound 86, (2S,5S,8S,13S,16R)-16-benzyl-1-(4-chloro-2-(4-(2-(methylamino)pyrimidin-5-yl)phenoxy)benzyl)-8-(4-chlorobenzyl)-5-(methoxymethyl)-2,7,13,14-tetramethyl-1,4,7,11,14-pentaazacyclooctadecane-3,6,10,15,18-pentaone] | 56.62 | 7.69
2 | CC[C@H]1C(=O)N[C@@H](COC)C(=O)N(C)[C@@H](Cc2ccc(Cl)cc2)CC(=O)NC[C@H](C)N(C)C(=O)[C@H](C)CC(=O)N1Cc1ccc(Cl)cc1Oc1ccc(-c2cnc(CN(C)C)n2C)cc1 [Compound 173, (2S,5S,8S,13S,16R)-1-(4-chloro-2-(4-(2-((dimethylamino)methyl)-1-methyl-1H-imidazol-5-yl)phenoxy)benzyl)-8-(4-chlorobenzyl)-2-ethyl-5-(methoxymethyl)-7,13,14,16-tetramethyl-1,4,7,11,14-pentaazacyclooctadecane-3,6,10,15,18-pentaone] | 84.80 | 7.13
3 | COC[C@@H]1NC(=O)[C@H](C)N(Cc2ccc(Cl)cc2Oc2ccc(-c3cnc(CN4CCCC4)n3C)cc2)C(=O)C[C@@H](Cc2ccccc2F)C(=O)N(C)[C@@H](C)CNC(=O)C[C@H](Cc2ccc(Cl)cc2)N(C)C1=O [Compound 229, (2S,5S,8S,13S,16R)-1-(4-chloro-2-(4-(1-methyl-2-(pyrrolidin-1-ylmethyl)-1H-imidazol-5-yl)phenoxy)benzyl)-8-(4-chlorobenzyl)-16-(2-fluorobenzyl)-5-(methoxymethyl)-2,7,13,14-tetramethyl-1,4,7,11,14-pentaazacyclooctadecane-3,6,10,15,18-pentaone] | 99.91 | 9.22
4 | COC[C@@H]1NC(=O)C(C)N(Cc2c(F)cc(F)cc2Oc2ccc(-c3cnc(CN(C)C)n3C)cc2)C(=O)C[C@@H](Cc2ccccc2)C(=O)N(C)[C@H]2CCCC[C@@H]2NC(=O)C[C@H](Cc2ccc(Cl)cc2)N(C)C1=O (stereo partly drawn) [Compound 41, (4S,7S,14R,16aS,20aS)-14-benzyl-4-(4-chlorobenzyl)-11-(2-(4-(2-((dimethylamino)methyl)-1-methyl-1H-imidazol-5-yl)phenoxy)-4,6-difluorobenzyl)-7-(methoxymethyl)-5,10,16-trimethylhexadecahydrobenzo[l][1,4,7,11,14]pentaazacyclooctadecine-2,6,9,12,15(3H)-pentaone] | 84.34 | 8.33
5 | CNCC[C@H]1C(=O)N[C@@H](COC)C(=O)N(C)[C@@H](Cc2ccc(Cl)cc2)CC(=O)N[C@H]2CCCC[C@@H]2N(C)C(=O)[C@H](Cc2ccccc2)CC(=O)N1Cc1ccc(Cl)cc1Oc1ccc(-c2cnc(CN(C)C)n2C)cc1 [Compound 3, (4S,7S,10S,14R,16aS,20aS)-14-benzyl-11-(4-chloro-2-(4-(2-((dimethylamino)methyl)-1-methyl-1H-imidazol-5-yl)phenoxy)benzyl)-4-(4-chlorobenzyl)-7-(methoxymethyl)-5,16-dimethyl-10-(2-(methylamino)ethyl)hexadecahydrobenzo[l][1,4,7,11,14]pentaazacyclooctadecine-2,6,9,12,15(3H)-pentaone] | 95.68 | 8.89
6 | COC[C@@H]1NC(=O)[C@H](C)N(Cc2ccc(Cl)cc2Oc2cccc(C(=O)NC3CCN(C)CC3)c2)C(=O)C[C@@H](Cc2ccccc2)C(=O)N(C)[C@@H](C)CNC(=O)C[C@H](Cc2ccc(Cl)cc2)N(C)C1=O [Compound 118, 3-(2-(((2S,5S,8S,13S,16R)-16-benzyl-8-(4-chlorobenzyl)-5-(methoxymethyl)-2,7,13,14-tetramethyl-3,6,10,15,18-pentaoxo-1,4,7,11,14-pentaazacyclooctadecan-1-yl)methyl)-5-chlorophenoxy)-N-(1-methylpiperidin-4-yl)benzamide] | 65.13 | 7.61
7 | COC[C@@H]1NC(=O)[C@H](CCCN(C)C)N(Cc2ccc(Cl)cc2Oc2ccc(-c3cnc(CN(C)C)n3C)cc2)C(=O)C[C@@H](Cc2ccccc2)C(=O)N(C)[C@@H](C)[C@H](C)NC(=O)C[C@H](Cc2ccc(Cl)cc2)N(C)C1=O [Compound 90, (2S,5S,8S,12S,13S,16R)-16-benzyl-1-(4-chloro-2-(4-(2-((dimethylamino)methyl)-1-methyl-1H-imidazol-5-yl)phenoxy)benzyl)-8-(4-chlorobenzyl)-2-(3-(dimethylamino)propyl)-5-(methoxymethyl)-7,12,13,14-tetramethyl-1,4,7,11,14-pentaazacyclooctadecane-3,6,10,15,18-pentaone] | 101.52 | 8.68
8 | COC[C@@H]1NC(=O)[C@H](C)N(Cc2ccc(Cl)cc2Oc2ccc(-c3cnc4c(CN5CCCC5)cccn34)cc2)C(=O)C[C@@H](Cc2ccccc2)C(=O)N(C)[C@@H](C)CNC(=O)C[C@H](Cc2ccc(Cl)cc2)N(C)C1=O [Compound 302] | 54.00 | 8.46
9 | COC[C@@H]1NC(=O)[C@H](C)N(Cc2ccc(Cl)cc2Oc2ccc(-c3cnc(CN4CCCC4)n3C)c(F)c2F)C(=O)C[C@@H](Cc2ccccc2)C(=O)N(C)[C@@H](C)CNC(=O)C[C@H](Cc2ccc(Cl)cc2)N(C)C1=O [Compound 299, (2S,5S,8S,13S,16R)-16-benzyl-1-(4-chloro-2-(2,3-difluoro-4-(1-methyl-2-(pyrrolidin-1-ylmethyl)-1H-imidazol-5-yl)phenoxy)benzyl)-8-(4-chlorobenzyl)-5-(methoxymethyl)-2,7,13,14-tetramethyl-1,4,7,11,14-pentaazacyclooctadecane-3,6,10,15,18-pentaone] | 95.40 | 8.48
10 | COC[C@@H]1NC(=O)[C@H](C)N(Cc2ccc(C)cc2Oc2ccc(-c3cnc(CN(C)C)n3C)cc2)C(=O)C[C@@H](Cc2ccccc2)C(=O)N(C)[C@@H](C)[C@H](C)NC(=O)C[C@H](Cc2ccc(Cl)cc2)N(C)C1=O [Compound 102, (2S,5S,8S,12S,13S,16R)-16-benzyl-8-(4-chlorobenzyl)-1-(2-(4-(2-((dimethylamino)methyl)-1-methyl-1H-imidazol-5-yl)phenoxy)-4-methylbenzyl)-5-(methoxymethyl)-2,7,12,13,14-pentamethyl-1,4,7,11,14-pentaazacyclooctadecane-3,6,10,15,18-pentaone] | 101.56 | 8.82
11 | C[C@H]1CNC(=O)C[C@H](Cc2ccc(Cl)cc2)N(C)C(=O)[C@H](CO)NC(=O)[C@H](C)N(Cc2ccc(Cl)cc2Oc2ccc3c(c2)C(=O)N(C2CCN(C)CC2)C3)C(=O)C[C@@H](Cc2ccccc2)C(=O)N1C [Compound 130, (2S,5S,8S,13S,16R)-16-benzyl-1-(4-chloro-2-((2-(1-methylpiperidin-4-yl)-3-oxoisoindolin-5-yl)oxy)benzyl)-8-(4-chlorobenzyl)-5-(hydroxymethyl)-2,7,13,14-tetramethyl-1,4,7,11,14-pentaazacyclooctadecane-3,6,10,15,18-pentaone] | 77.42 | 7.69
